Measured values published in US7423068B2, “Control of parasitic mites of honey bees” (The United States of America as represented by the …, priority 2001, dated 2008).

Assays:
Varroa mites [1] = assay: Varroa trapping device in a Varroa-infested 9-frame colony; type: in vivo, Varroa jacobsoni; settings: trap coated with 20% 2-heptanone gel, between brood frames, after 48 hrs
Description: In a second test to determine if 2-heptanone is an attractant, a Varroa trapping device was placed in a Varroa-infested 9-frame colony for 48 hrs. The device was constructed by placing a 2.54 cm^2 piece of Dewill® Varroa Mite Detector Insert coated with a 20% concentration of 2-heptanone in a gel formulation and covered with a 0.63 cm (0.25 inch) wire mesh. A wire was placed through the top of the trap so that the trap dangled between the frames in the colony. The device was placed between frames containing brood.

[2] = test system: wax moth (Galleria mellonella); assay: Control of wax moth in stored frames with drawn comb; type: in vivo; settings: 1, 2 or 3 slow release strips with 60 grams 2-heptanone, after 5 weeks; equipment without 2-heptanone totally infested
Description: We conducted an experiment where we stored five frames with drawn comb in a nucleus colony box without bees present. In three nucleus colony boxes we placed 1, 2 or 3 strips containing 60 grams of 2-heptanone in a slow release formulation. In a fourth nucleus colony box we placed no 2-heptanone. Within 2 weeks after the start of the experiment, the equipment without 2-heptanone had wax moth adults present between the frames. The adults probably were laying eggs. After 5 weeks, the equipment without 2-heptanone was totally infested with wax moth. There still was no wax moth in any equipment containing 2-heptanone.

Varroa mites [3] = assay: Attractant petri dish bioassay with 20% 2-heptanone gel formulation; type: in vivo, Varroa jacobsoni; settings: 40 μL of 20% 2-heptanone gel
Experimental: We conducted bioassays to deternine if 2-heptanone attracts Varroa mites. In the first bioassay, we exposed free-running adult mites to volatiles from a 20% 2-heptanone in a gel formulation. […] 40 μL of 20% 2-heptanone in a gel formulation was added to a weighing boat located in the center of the petri dish. Control dishes were set up as described above with empty weighing boats in the center. Within 24 hours 27.3% of the mites were found in the gel formulation of 2-heptanone located in the weighing boat in the center of the petri dish. No mites were found in the weighing boat in the Control dish. The bioassay was repeated using the same procedure as described above. In the second replicate, 16.7% of the mites were found in the gel formulation of 2-heptanone located in the weighing boat in the center of the petri dish and again 0% were found in the weighing boats of the Control dishes.

[4] = Release rate of 2-heptanone from acrylic blocks; type: physicochemical; settings: acrylic block, 34° C.
Description: Blocks having the following composition were made:
Polymerization was triggered with 2.9% benzoyl peroxide and 1.1% dimethylparatoluidine. Each block weighed approximately 30 grams (Diam. 60 mm, Height 10 mm). The blocks were molded in an aluminum cup.
However, it was found, because of a packaging problem, that the blocks lost some active ingredient during transportation and had only 30% 2-heptanone. To avoid any further loss of active ingredient, the unused samples were stored at all times in a refrigerator at 4° C. The value of 30% 2-heptanone was kept for further processing of the data. The rate at which 2-heptanone was released from the blocks was measured. The experimental procedure consisted in weighing the acrylic blocks left in their aluminum mold at regular intervals. The blocks were kept in an incubator set at 34° C. (temperature of the center of the brood nest in a honey bee hive). It is noteworthy that the incubator is not air tight and that the incubator glass door had to be opened to retrieve the sample to be weighed. An Isotemp Incubator from Fisher Scientific was used. The incubator has a measured volume of 71 liters. The samples were monitored for 44 days.

[5] = Diffusion of 2-heptanone from controlled release strip; type: physicochemical; settings: polyurethane core with 60 g 2-heptanone, in 5-frame colony
Experimental: This test (Trial 3) was carried out in 5-frame colonies as described above except for the following changes. In this test, 2-heptanone was released using a controlled release strip as described in U.S. Pat. No. 5,750,129. In brief, the controlled release strip was composed of a polymer sleeve 20 cm long and 5 cm wide in which a polyurethane core containing 60 g 2-heptanone was sealed. The 2-heptanone strip was placed on the top of the frame (top bar). The controlled diffusion of 2-heptanone through the membrane occurred over a period of 3 weeks. A new 2-heptanone controlled release strip was placed on the top bar after 3 weeks. The Apistan® strip was placed between the frames as described above. The Control comprised no treatment.

CCCCCC(C)=O [2-Heptanone]
Varroa mites found stuck in the gel on the trap (Varroa mites [1]): several hundred
wax moth infestation of stored equipment [2]: no wax moth
% of the mites found in the gel formulation in the weighing boat (Varroa mites [3]; second replicate, Control 0%): 16.7%
% of the mites found in the gel formulation in the weighing boat (Varroa mites [3]; within 24 hours, first bioassay, Control none): 27.3%
% 2-Heptanone loss (initial conc. 30%) ([4]; Day 0): 0%
Daily release in percentage ([4]; Day 0): 0 percentage
% 2-Heptanone loss (initial conc. 30%) ([4]; Day 1): 29.13%
Daily release in percentage ([4]; Day 1): 29.13 percentage
% 2-Heptanone loss (initial conc. 30%) ([4]; Day 2): 38.76%
Daily release in percentage ([4]; Day 2): 9.63 percentage
% 2-Heptanone loss (initial conc. 30%) ([4]; Day 3): 49.04%
Daily release in percentage ([4]; Day 3): 10.28 percentage
% 2-Heptanone loss (initial conc. 30%) ([4]; Day 4): 55.72%
Daily release in percentage ([4]; Day 4): 6.68 percentage
% 2-Heptanone loss (initial conc. 30%) ([4]; Day 7): 68.85%
Daily release in percentage ([4]; Day 7): 4.38 percentage
% 2-Heptanone loss (initial conc. 30%) ([4]; Day 8): 71.82%
Daily release in percentage ([4]; Day 8): 2.97 percentage
% 2-Heptanone loss (initial conc. 30%) ([4]; Day 9): 74.7%
Daily release in percentage ([4]; Day 9): 2.88 percentage
% 2-Heptanone loss (initial conc. 30%) ([4]; Day 10): 76.09%
Daily release in percentage ([4]; Day 10): 1.39 percentage
% 2-Heptanone loss (initial conc. 30%) ([4]; Day 11): 77.88%
Daily release in percentage ([4]; Day 11): 1.79 percentage
% 2-Heptanone loss (initial conc. 30%) ([4]; Day 14): 82.31%
Daily release in percentage ([4]; Day 14): 1.48 percentage
% 2-Heptanone loss (initial conc. 30%) ([4]; Day 15): 83.43%
Daily release in percentage ([4]; Day 15): 1.12 percentage
% 2-Heptanone loss (initial conc. 30%) ([4]; Day 16): 84.39%
Daily release in percentage ([4]; Day 16): 0.96 percentage
% 2-Heptanone loss (initial conc. 30%) ([4]; Day 18): 86.24%
Daily release in percentage ([4]; Day 18): 0.92 percentage
% 2-Heptanone loss (initial conc. 30%) ([4]; Day 21): 88.43%
Daily release in percentage ([4]; Day 21): 0.73 percentage
% 2-Heptanone loss (initial conc. 30%) ([4]; Day 24): 89.98%
Daily release in percentage ([4]; Day 24): 0.52 percentage
% 2-Heptanone loss (initial conc. 30%) ([4]; Day 30): 92.36%
Daily release in percentage ([4]; Day 30): 0.4 percentage
% 2-Heptanone loss (initial conc. 30%) ([4]; Day 44): 95.21%
Daily release in percentage ([4]; Day 44): 0.2 percentage
period of controlled diffusion of 2-heptanone through the membrane [5]: 3 weeks
